The source of these data is PMC10974622, “Hybrid Peptide-Alkoxyamine Drugs: A Strategy for the Development of a New Family of Antiplasmodial Drugs” (Molecules, 2024).

For one data set, the system named is Vero cells.
Assay: not given
To be noted: cited from earlier work.
A word on the CC50: it is the concentration at which the toxic effect on the cells reaches its halfway point. For the compound `CCc1ccc(NC(=O)[C@H](Cc2ccccc2)NC(=O)[C@@H](NC(=O)[C@H](Cc2ccccc2)NC(=O)CCC(=O)OCc2ccccc2)C(C)C)cc1` [P23L], the CC50 is over 50 µM.
Regarding `CCc1ccc(NC(=O)[C@H](Cc2ccccc2)NC(=O)[C@@H](NC(=O)[C@H](Cc2ccccc2)NC(=O)CCC(=O)O)C(C)C)cc1` [P24L], the CC50 is over 50 µM.

System in another data set: not listed separately
Briefly: Kinetic analysis of alkoxyamine bond homolysis by EPR. To be noted: in t-BuPh, Equation (2), A = 2.4 · 10^14 s^−1. In kind it is physicochemical. On the procedure:
The kinetic homolysis for peptide-alkoxyamines reported in Table 1 was recorded in EPR using two solvents, tert-butylbenzene (t-BuPh) or an n-propanol:water (1:1, v:v) mixture. The growth of nitroxide was recorded in the presence of an alkyl radical scavenger, i.e., O2 here, to suppress the back reaction (kc in Scheme 4), as already reported.
Homolysis rate constants kd are given by Equation (1) ([nitroxide]∞ = [alkoxyamine]0 = 0.1 mM), and the subsequent activation energy values Ea are given by Equation (2), as follows:(1) lnnitroxide∞−nitroxidet/nitroxide∞=−kd·t (2) Ea=−RTlnkd/A
Consider `CC(ON(C(C)(C)C)C(C)(C)C)c1ccc(NC(=O)[C@@H](Cc2ccccc2)NC(=O)[C@@H](NC(=O)[C@H](Cc2ccccc2)NC(=O)OC(C)(C)C)C(C)C)cc1` (stereo partly drawn) [A8DL], for which the “activation energy Ea” value is 28.51 kcal/mol.
As to `CC(ON(C(C)(C)C)C(C)(C)C)c1ccc(NC(=O)[C@@H](Cc2ccccc2)NC(=O)[C@H](NC(=O)[C@@H](Cc2ccccc2)NC(=O)OC(C)(C)C)C(C)C)cc1` (some centres unmarked) [A8D], the “activation energy Ea” value is 28.94 kcal/mol.
The same measure, in the same setting: for `CC(ON(C(C)(C)C)C(C)(C)C)c1ccc(NC(=O)[C@@H](Cc2ccccc2)NC(=O)OC(C)(C)C)cc1` (some centres unmarked) [A9D] the value was 28.87 kcal/mol.
The same measure, in the same setting: under `CC(ON(C(C)(C)C)C(C)(C)C)c1ccc(NC(=O)[C@H](Cc2ccccc2)NC(=O)OC(C)(C)C)cc1` (some centres unmarked) [A9L] stands 28.8 kcal/mol.

Still in this data set, the particulars now being: in water/n-PrOH 1/1 v/v, Equation (2), A = 2.4 · 10^14 s^−1.
For the compound `CC(ON(C(C)(C)C)C(C)(C)C)c1ccc(NC(=O)[C@@H](Cc2ccccc2)NC(=O)[C@@H](NC(=O)[C@H](Cc2ccccc2)NC(=O)OC(C)(C)C)C(C)C)cc1` (stereo partly drawn) [A8DL], the “activation energy Ea” value stood at 28.3 kcal/mol.
With `CC(ON(C(C)(C)C)C(C)(C)C)c1ccc(NC(=O)[C@@H](Cc2ccccc2)NC(=O)[C@H](NC(=O)[C@@H](Cc2ccccc2)NC(=O)OC(C)(C)C)C(C)C)cc1` (some centres unmarked) [A8D], the “activation energy Ea” value stood at 28.32 kcal/mol.
As for `CC(ON(C(C)(C)C)C(C)(C)C)c1ccc(NC(=O)[C@@H](Cc2ccccc2)NC(=O)OC(C)(C)C)cc1` (some centres unmarked) [A9D], the “activation energy Ea” value is 28.42 kcal/mol.
Still for that read-out and setting: under `CC(ON(C(C)(C)C)C(C)(C)C)c1ccc(NC(=O)[C@H](Cc2ccccc2)NC(=O)OC(C)(C)C)cc1` (some centres unmarked) [A9L] stands 28.42 kcal/mol.

The subject of a further data set is F32-ART parasites. Kind of data set: Parasitemia monitoring and parasite morphology upon drug exposure, F32-ART ring-stage parasites. In kind it is cell-based, Plasmodium falciparum. The note with it: 48 h exposure. On the procedure:
The effect of hybrid compounds against Plasmodium parasites was assessed by the microscopic examination of parasite morphology upon drug exposure. For this purpose, parasites were synchronized at 0–4 h age by percoll-sorbitol treatment, 0–24 h age by sorbitol treatment, or at schizont stage by percoll treatment at the start of the experiment. Different treatment schedules were tested. In the case of multiple doses, parasite cultures were washed before each new drug addition.
Take `C[C@H]1[C@@H](O)O[C@@H]2O[C@@]3(C)CC[C@H]4[C@H](C)CC[C@@H]1[C@@]24OO3` [DHA, dihydroartemisinin, reference compound]: the “effect on parasitemia and parasite cell cycle” value was “high parasitemia decrease”.

The subject of a further data set is P. falciparum strain F32-ART (artemisinin-resistant). Kind of data set: microbe, parasite or virus in culture. In kind it is cell-based, Plasmodium falciparum. To be noted: Plasmodium falciparum, F32, read-out: Antiplasmodial Activity IC50, strain F32-ART, SYBR Green assay, mean ± SEM of 3 to 6 experiments. From the text: The antimalarial activity of peptide-alkoxyamine hybrids was first evaluated in the in vitro antiproliferative test (IC50) using the artemisinin-resistant strain F32-ART (Table 2, Table S1). The roles of the N-substitution of the alkoxyamine moiety (TEMPO- or DBNO-based, for example, A3L/A8L, line 1/line 10), of the configuration (L or D of the peptide, A3L/A3D, line 1/line 2), of the N-protection of the peptide (A3L/A4L or A5L, line 1/ lines 3 and 5) were examined. According to standard rules in the malaria field, only molecules having IC50 values below 1 μM were considered active.
The F32-ART (artemisinin-resistant) strain and the F32-TEM (artemisinin-sensitive strain) were cultured according to Trager and Jensen in RPMI 1640 medium (Fisher Scientific, Illkirch, France) supplemented with 5% human serum (Etablissement français du Sang, Toulouse, France) at 2% hematocrit with type O human blood (Etablissement français du Sang, Toulouse, France), 37 °C, and 5% CO2 in a humidified atmosphere.
(§1) IC50 values corresponding to 50% inhibition of P. falciparum growth were determined by SYBR Green assay, and the assessment of cytotoxicity was performed on Vero cells (cell line from the kidney of a normal adult African green monkey), as previously published. The selectivity index corresponded to the cytotoxicity/activity ratio.
In general, IC50 refers to the concentration at which inhibition is half-maximal. Regarding `CC(ON1C(C)(C)CCCC1(C)C)c1ccc(NC(=O)[C@@H](Cc2ccccc2)NC(=O)[C@H](NC(=O)[C@H](N)Cc2ccccc2)C(C)C)cc1` (some centres unmarked) [A4D], the IC50 lay within 2.2 to 2.6 µM.
For the compound `CC(ON(C(C)(C)C)C(C)(C)C)c1ccc(NC(=O)[C@@H](Cc2ccccc2)NC(=O)[C@@H](NC(=O)[C@H](Cc2ccccc2)NC(=O)OC(C)(C)C)C(C)C)cc1` (stereo partly drawn) [A8DL], the IC50 came to 0.87 ± 0.04 µM.
Still for that read-out and setting: for `CC(ON(C(C)(C)C)C(C)(C)C)c1ccc(NC(=O)[C@@H](Cc2ccccc2)NC(=O)[C@H](NC(=O)[C@@H](Cc2ccccc2)NC(=O)OC(C)(C)C)C(C)C)cc1` (some centres unmarked) [A8D] the value was 50 µM.

Staying with this data set, now noted: cytotoxicity (Vero cells)/antiplasmodial activity (F32-ART) ratio.
`CC(ON1C(C)(C)CCCC1(C)C)c1ccc(NC(=O)[C@@H](Cc2ccccc2)NC(=O)[C@H](NC(=O)[C@H](N)Cc2ccccc2)C(C)C)cc1` (some centres unmarked) [A4D]: the “Selectivity Index CC50/IC50” value was determined as 1.1.
Still for that read-out and setting: for `CC(ON(C(C)(C)C)C(C)(C)C)c1ccc(NC(=O)[C@@H](Cc2ccccc2)NC(=O)[C@@H](NC(=O)[C@H](Cc2ccccc2)NC(=O)OC(C)(C)C)C(C)C)cc1` (stereo partly drawn) [A8DL] the value was over 57.

The data set is the same for the next values; noted with them: read-out: Antiplasmodial Activity IC50; strain F32-ART, SYBR Green assay, mean ± SEM of 3 to 6 experiments.
Consider `CC(ON1C(C)(C)CCCC1(C)C)c1ccc(NC(=O)[C@@H](Cc2ccccc2)NC(=O)[C@H](NC(=O)[C@H](N)Cc2ccccc2)C(C)C)cc1` (some centres unmarked) [A4D], for which the IC50 is 2.3 ± 0.3 µM.
The same measure, in the same setting: under `CC(ON(C(C)(C)C)C(C)(C)C)c1ccc(NC(=O)[C@@H](Cc2ccccc2)NC(=O)[C@H](NC(=O)[C@H](N)Cc2ccccc2)C(C)C)cc1` (some centres unmarked) [AW231] stands 4.48 ± 0.29 µM.

The same data set, now with this note: strain F32-ART, SYBR Green assay, mean ± SEM of 3 to 6 experiments; read-out: Antiplasmodial Activity IC50.
`CCc1ccc(NC(=O)[C@H](Cc2ccccc2)NC(=O)[C@@H](NC(=O)[C@H](Cc2ccccc2)NC(=O)CCC(=O)OCc2ccccc2)C(C)C)cc1` [P23L]: the IC50 is over 10 µM.
Same read-out and setting: under `CCc1ccc(NC(=O)[C@H](Cc2ccccc2)NC(=O)[C@@H](NC(=O)[C@H](Cc2ccccc2)NC(=O)CCC(=O)O)C(C)C)cc1` [P24L] stands over 10 µM.

System in a further data set: not listed separately
Briefly: in vitro. In kind it is cell-based, African green monkey. The note with it: African green monkey, Cytotoxicity CC50. As for the experimental part:
as §1
Turning to `CC(ON1C(C)(C)CCCC1(C)C)c1ccc(NC(=O)[C@@H](Cc2ccccc2)NC(=O)[C@H](NC(=O)[C@H](N)Cc2ccccc2)C(C)C)cc1` (some centres unmarked) [A4D], the CC50 was 2.2 to 2.6 µM.
On the same count and under the same terms, under `CC(ON(C(C)(C)C)C(C)(C)C)c1ccc(NC(=O)[C@@H](Cc2ccccc2)NC(=O)[C@@H](NC(=O)[C@H](Cc2ccccc2)NC(=O)OC(C)(C)C)C(C)C)cc1` (stereo partly drawn) [A8DL] stands over 50 µM; under `CC(ON(C(C)(C)C)C(C)(C)C)c1ccc(NC(=O)[C@@H](Cc2ccccc2)NC(=O)[C@H](NC(=O)[C@@H](Cc2ccccc2)NC(=O)OC(C)(C)C)C(C)C)cc1` (some centres unmarked) [A8D], over 50 µM.

The next data set has as its system Vero cells. Briefly: in vitro. In kind it is cell-based, African green monkey. To be noted: African green monkey. As for the experimental part:
as §1
`CC(ON1C(C)(C)CCCC1(C)C)c1ccc(NC(=O)[C@@H](Cc2ccccc2)NC(=O)[C@H](NC(=O)[C@H](N)Cc2ccccc2)C(C)C)cc1` (some centres unmarked) [A4D] displayed a CC50 of 2.6 ± 0.3 µM.
Consider `CC(ON(C(C)(C)C)C(C)(C)C)c1ccc(NC(=O)[C@@H](Cc2ccccc2)NC(=O)[C@H](NC(=O)[C@H](N)Cc2ccccc2)C(C)C)cc1` (some centres unmarked) [AW231], for which the midpoint of cytotoxicity, the CC50, lay at 6.6 ± 0.4 µM.

The next data set relates to F32-ART parasites at the quiescent stage. Briefly: Quiescent-stage Survival Assay (QSA). In kind it is cell-based, Plasmodium falciparum. To be noted: 700 nM DHA, compound at 7 µM. On the procedure: In this assay, parasites were exposed to dihydroartemisinin (DHA) alone to induce quiescence, prior the addition of the drug to be tested for 48 h, and then the parasite recrudescence was monitored over a maximum of 4 weeks. Activity against quiescent parasites was evidenced by a delay in recrudescence time over 6 days between the conditions “DHA 6 h / DHA 48 h” and “DHA 6 h/(DHA + molecule) 48 h”. Atovaquone was used as a positive control, and its activity against quiescent parasites was here confirmed, as expected, by an extended delay of 11 days in recrudescence time (Figure 5). By contrast, no activity of A8L and A3L against quiescent parasites was evidenced in the QSA, with similar recrudescence time between the conditions “DHA 6 h/DHA 48 h” and “DHA 6 h/(DHA + molecule) 48 h”. […] To understand this phenomenon, we explored the parasite response during treatment with these hybrid compounds.
The QSA was performed according to Reyser et al.. Briefly, ART-resistant ring-stage parasites at 3% parasitemia were exposed for 6 h to 700 nM of DHA (dihydroartemisinin) to induce quiescence or were exposed to no drugs (control condition). After that, the compound to be tested was added in both conditions […]. At the end of the treatment, the drugs were washed off with RPMI-1640, and parasites were replaced in drug-free conditions. Blood smears were performed to follow parasitemia until the day the cultures reached their starting parasitemia, defined as the recrudescence day. If after 30 days no parasite recrudescence was observed, then the data were censored. Data analysis was performed using Kaplan–Meier survival curves. Statistical significance was ascertained by using a log-rank (Mantel-Cox) test using GraphPad Prism 7 software (San Diego, CA, USA).
`O=C1C(O)=C([C@H]2CC[C@H](c3ccc(Cl)cc3)CC2)C(=O)c2ccccc21` [Atovaquone, reference compound]: the “delay in recrudescence time between DHA 6 h/DHA 48 h and DHA 6 h/(DHA + molecule) 48 h” value worked out at 11 days.
